Entries after “also recorded” stand apart in the source; their conditions may differ.
Key:
P19 cells [1] = assay: Movement of ATBF1 from cytoplasm to nucleus in P19 cells, PI3K family antagonists added; format: cell-based, mouse; conditions: P19 cells attached to culture dish, after retinoic acid
Method: The present inventors harvested cells in an undifferentiated proliferation state, to which stimulation had not been particularly applied, when at the starting time of culturing P19 carcinoma cells, and carried out an immunohistochemical staining method (ATBF1 staining using D1-120) by the following procedures. The cells were cultured in a chamber slide and fixed in 4% paraformaldehyde that had been adjusted with PBS, followed by washing. A primary antibody solution obtained by dissolving an anti-ATBF1 antibody in 0.05M Tris buffer solution (pH 7.6, containing 1% solution of bovine serum albumin and sodium azide) so that the concentration of the solution became 5 μg/ml was dropped on a slice to cause reaction at 37° C. for about 30 minutes (primary antibody reaction). […] After sufficiently washing, inclusion was carried, which was observed by using a fluorescence microscope (AX70; Olympus) or a confocal laser scanning microscope (LSM5; ZWISS). […]
From the fact about various factors relating to the cell cycle, which was investigated in the past, the movement of proteins between the nucleus and the cytoplasm is known to relate to phosphorylation of amino acid. In particular, it was determined that, for the movement to the nucleus, phosphorylation and dephosphorylation of nuclear localization signals were important. […]

[2] = tested on: NB1 cultured cell line derived from human neuroblastoma; assay: Western blotting of ATBF1 protein (D1-120) with or without retinoic acid treatment, NB1; format: cell-based; conditions: NB1, after retinoic acid treatment 24 hours
Method: In order to confirm the probability that the ATBF1 assumed in 10-2 is cut at some sites and it can function as each fraction of the cell, by using three kinds of cultured cells, that is, the cultured cell lines derived from human neuroblastoma, NB1 and GOTO; a mouse undifferentiated embryonic carcinoma cell line p19 and SDS-PAGE and western blotting using an anti-ATBF1 antibody (D1-120) were carried out. A control group and a nerve cell differentiation inducing group were examined, separately. As to the control group, cells of P19, NB1 and GOTO that have been cultured in a serum-containing culture solution were collected and examined. As to the nerve cell differentiation inducing group, retinoic acid treatment was carried out (P19: four days; NB1 and GOTO: 24 hours). However, a culture method of P19 cells is different from that of the other two cell lines. Firstly, in a state in which cells were allowed to float on a bacterial grade dish for four days, retinoic acid (concentration: […]) treatment was carried out, and then a serum-containing culture solution from which the retinoic acid had removed was prepared and transferred to a usual tissue culture dish. Then, culture was continued for three days. According to this method, P19 cells were differentiated and induced to neuron in which neurite was observed. […]

P19 cells [3] = assay: Export of ATBF1 from nucleus to cytoplasm in P19 cells, CRM1 inhibitor added; format: cell-based, mouse
Method: The present inventors harvested cells in an undifferentiated proliferation state, to which stimulation had not been particularly applied, when at the starting time of culturing P19 carcinoma cells, and carried out an immunohistochemical staining method (ATBF1 staining using D1-120) by the following procedures. The cells were cultured in a chamber slide and fixed in 4% paraformaldehyde that had been adjusted with PBS, followed by washing. A primary antibody solution obtained by dissolving an anti-ATBF1 antibody in 0.05M Tris buffer solution (pH 7.6, containing 1% solution of bovine serum albumin and sodium azide) so that the concentration of the solution became 5 μg/ml was dropped on a slice to cause reaction at 37° C. for about 30 minutes (primary antibody reaction). After sufficiently washing, a secondary antibody Alexa Fluor 594-conjugated goat anti-rabbit IgG (as shown in the below-mentioned Examples, when double staining with other monoclonal antibody is carried out, Alexa Fluor 488-conjugated goat anti-mouse IgG is used simultaneously. Both are products by Molecular Probes.) was allowed to act on a specimen to cause a reaction at room temperature for about one hour (secondary antibody reaction). After sufficiently washing, inclusion was carried, which was observed by using a fluorescence microscope (AX70; Olympus) or a confocal laser scanning microscope (LSM5; ZWISS).
Recently, the fact that transport and export of various factors from the nucleus to the cytoplasm is adjusted with CRM1 (Exportin 1 or chromosome region maintenance 1) has been reported. ATBF1 is assumed to have a target sequence of CRM1, that is, nuclear exporting signals existing in three positions (portions starting from the 1267th, 2471th and 2504th positions in the amino acid sequence, respectively) (see FIG. 3b). […]

RT4 = conditions: cited from earlier work
T24 = conditions: T24, p53 nonsense mutant; cited from earlier work
HT1376 = conditions: HT1376, p53 missense mutant, p21 frame shift mutation; cited from earlier work

Cn1c(=O)c2c(ncn2C)n(C)c1=O [caffeine]
movement of ATBF1 into the nucleus (P19 cells [1]): inhibited in almost all of the cultured cells; also recorded: more completely inhibited | proliferation state of cells (P19 cells [1]): completely maintained

CC1=C(/C=C/C(C)=C/C=C/C(C)=C/C(=O)O)C(C)(C)CCC1 [retinoic acid]
size of ATBF1 protein mainly observed [2]: 210 kDa

CCC(=C/[C@H](C)C/C=C/C(C)=C/[C@@H](C)C(=O)[C@@H](C)[C@H](O)[C@@H](C)C/C(C)=C/C(=O)O)/C=C/[C@@H]1OC(=O)C=C[C@@H]1C [Leptomycin B]
number of cells undergoing apoptosis (P19 cells [3]; P19 cells after retinoic acid on coated dish): clearly increased | intranuclear concentration of ATBF1 (P19 cells [3]; P19 cells after retinoic acid on dish coated with fibronectin and poly-L-ornithine, versus no Leptomycin B): clearly increased | cell death (P19 cells [3]; one more day of culture added, the following day): almost all the cells died

N.N.[Cl][Pt][Cl] [cisplatin]
introduction of p21 (RT4; RT4, the only one of the three cell lines): can introduce p21 | induction of apoptosis (RT4; RT4, wild-type p21 and p53): can be induced | induction of apoptosis (T24): cannot be induced | induction of apoptosis (HT1376): cannot be induced
